Source: patent US20240336657A1, “G-ALPHA-S PEPTIDE INHIBITORS AND USES THEREOF” (The Regents of the University of California, priority 2021, published 2024)
Positions of bridges follow the written chain, without caps; N, C: chain ends. Non-standard residues stand in square brackets, D forms with d. Residues, ends and D or L forms follow the SMILES beside them.

Tests used:
GDP-bound Gαs = molecular target: T1, GDP-bound Gαs (Homo sapiens, UniProt P63092); assay: Bio-layer interferometry (BLI) binding kinetics
T1 construct: hexahistidine (N, cleaved yes); made in house; host or cells: Escherichia coli BL21(DE3)
Procedure: BLI experiments were performed using an OctetRED384 instrument from ForteBio. All experiments were performed at 25° C. using BLI buffer (10 mM HEPES pH 7.4, 150 mM NaCl, 1 mM MgCl2, 0.05% Tween-20, 0.1% DMSO, 0.2 mM GppNHp or GDP). Cyclic peptides were diluted to a series of concentrations in BLI buffer plus 10 μM Biotin. Assays were conducted in Greiner 384well, black, flat bottom polypropylene plates containing the protein solutions, BLI buffer plus 10 μM Biotin for dissociation, and serial dilutions of cyclic peptides to be tested.
Biotinylated proteins were immobilized on Streptavidin biosensors by dipping sensors into plate wells containing protein solutions at a concentration of 100-150 nM. Protein loading is around 2-3 nm. Sensors loaded with proteins were moved and dipped into wells with BLI buffer plus 10 μM Biotin to block unlabeled Streptavidin. Association-dissociation cycles of compounds were started by moving and dipping sensors to cyclic peptides dilutions and BLI buffer plus 10 μM Biotin wells alternatively. Association and dissociation times were carefully determined to ensure full association and dissociation.
Raw kinetic data collected were processed with the Data Analysis software provided by the manufacturer using single reference subtraction in which buffer-only reference was subtracted (For GN13 analysis). Because GD20 analogs have a low level of background binding, we used a double reference subtraction (buffer-only reference and non-protein-loading reference) method to calculate their kinetics values. The resulting data were analyzed based on a 1:1 binding model from which kon and koff values were obtained and then Kd values were calculated.

[1] = tested on: biotinylated Gαs WT and His-tagged Gβγ(C68S); assay: FRET based Gα/Gβγ interaction assay; assay type: binding, human; conditions: Gαs/Gβγ versus Gαi/Gβγ
Procedure: When we compared our GD20-bound Gαs structure with another GDP-bound Gαs structure in complex with Gβγ (FIG. 20D) (Liu et al., 2019), we noticed that GD20 induces a significant conformational shift of the Gβγ binding surface, and GD20 occupies the Gβγ binding surface in a competitive manner (FIGS. 20E-20F). […] Finally, 2× stocks of cyclic peptides were added with the protein mixtures. After incubation at room temperature for 2 hour at room temperature. The plate was read on a TECAN Spark 20 M plate reader using the TR-FRET mode with the following parameters: Lag time: […], Integration time: […], Read A: Ex 320(25) nm (filter), Em 610(20) nm (filter), Gain 130, Read B: Ex 320(25) nm (filter), Em 665(8) nm (filter), Gain 165. FRET Signal was calculated as the ratio of [Read B]/[Read A].

Gαs S275L = Gαs S275L (Homo sapiens, UniProt P63092, S275L); assay: Adenylyl cyclase activity assay in membranes of GNAS KO HEK293 cells transfected with Gαs S275L; assay type: biochemical; design: expressed in transfected cells; host or cells: GNAS KO HEK293 cells (membranes); conditions: Gαs S275L reintroduced
Sequence of Gαs S275L (P63092 whole entry S275L): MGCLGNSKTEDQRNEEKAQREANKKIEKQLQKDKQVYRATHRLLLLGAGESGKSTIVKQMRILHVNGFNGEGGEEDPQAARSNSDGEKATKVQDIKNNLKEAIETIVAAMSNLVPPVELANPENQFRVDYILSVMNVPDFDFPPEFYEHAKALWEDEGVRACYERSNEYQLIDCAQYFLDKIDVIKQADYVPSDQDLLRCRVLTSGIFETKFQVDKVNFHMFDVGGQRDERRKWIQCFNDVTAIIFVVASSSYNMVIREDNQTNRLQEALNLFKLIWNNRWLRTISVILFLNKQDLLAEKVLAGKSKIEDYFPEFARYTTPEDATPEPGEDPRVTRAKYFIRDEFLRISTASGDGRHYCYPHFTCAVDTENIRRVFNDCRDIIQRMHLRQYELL
From the text: To further assess the cellular specificity of GN13, we designed a GN13-resistant Gαs mutant based on structural analysis. […] We reasoned that mutating this serine residue to a bulky residue should create a drug-resistant Gαs mutant that blocks the GN13-Gαs interaction but would have little effect on adenylyl cyclase activation. […] By contrast, when the drug resistant mutant Gαs S275L was reintroduced into GNAS KO cells, the inhibitory effect of GN13 was abolished (FIG. 3I), providing further evidence that the observed pharmacological activity is due to GN13 binding to the switch II/α3 pocket in Gαs.
GN13 inhibition of Gαs proteins in HEK293 cell membranes (FIG. 17F and FIG. 18F).
a. Cell membrane preparation: HEK293cells, GNAS KO HEK293 cells were plated two day before transfection at a density of 1M cells per 10 cm plate. […] The protein concentrations were measured using BCA, and were normalized to 750 μg/mL. […] The cAMP concentrations were measured by the LANCE Ultra cAMP kit. […]
A cAMP standard curve was generated in the same plate using the 50 μM cAMP standard in the kit. […] 10 μL of each diluted sample was mixed with 5 μL of 4× Eu-cAMP tracer and 5 μL of 4× ULight-anti-cAMP in a white, opaque Optiplate-384 microplate, incubated for 1 hour at room temperature, and the time-resolved fluorescence resonance energy transfer (TR-FRET) signals were read on a Spark 20M plate reader. […]

[2] = molecular target: T2, GTP- and GppNHp-bound Gαs Q227L mutant (Homo sapiens, UniProt P63092, Q227L); assay: Adenylyl cyclase activation assay with oncogenic mutant; assay type: biochemical
T2 construct: made in house; host or cells: Escherichia coli BL21(DE3)
T2 sequence (P63092 7-380 isoform P63092-2 Q213L limits assumed): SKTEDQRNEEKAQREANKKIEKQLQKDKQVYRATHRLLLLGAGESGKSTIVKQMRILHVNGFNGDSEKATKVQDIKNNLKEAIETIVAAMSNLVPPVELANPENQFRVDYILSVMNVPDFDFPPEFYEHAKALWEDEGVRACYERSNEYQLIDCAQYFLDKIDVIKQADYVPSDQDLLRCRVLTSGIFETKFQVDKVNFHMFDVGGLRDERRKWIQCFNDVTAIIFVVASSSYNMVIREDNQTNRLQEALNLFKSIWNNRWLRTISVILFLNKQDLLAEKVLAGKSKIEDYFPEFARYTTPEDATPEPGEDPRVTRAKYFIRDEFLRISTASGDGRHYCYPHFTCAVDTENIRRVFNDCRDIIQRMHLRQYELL
From the text: Gαs is one of the most frequently mutated G proteins in human cancer. Hotspot mutations in Gαs (Q227) disrupt its GTPase activity, thereby locking Gαs in the GTP-bound active conformation (Zachary et al., 1990).

SMILES | Kd (GDP-bound Gαs; GDP/Gαs) | koff (GDP-bound Gαs; GDP/Gαs) | kon (GDP-bound Gαs; GDP/Gαs) | selectivity for Gαs than Gαi in the FRET assay [1] | binding to GDP-bound Gαs (GDP-bound Gαs; highest concentration tested) | inhibition of isoproterenol-mediated cAMP production in cell membranes (Gαs S275L) | inhibition of Gαs Q227L mutant in the adenylyl cyclase activation assay [2]
CC[C@H](C)[C@@H]1NC(=O)[C@H](CC(C)C)NC(=O)[C@@H](Cc2ccc(O)cc2)NC(=O)CSC[C@@H](C(=O)NCC(N)=O)NC(=O)[C@@H]2CCCN2C(=O)[C@H](CC(C)C)NC(=O)[C@H](CC(N)=O)NC(=O)[C@H](CC(C)C)NC(=O)[C@H](C)NC(=O)[C@H](Cc2c[nH]c3ccccc23)NC(=O)[C@H](CCC(N)=O)NC(=O)[C@H](CCCNC(=N)N)NC(=O)[C@H](Cc2ccccc2)NC(=O)[C@H]([C@@H](C)O)NC1=O [GD20-F10L] ({CH2CO}-[dY]LITFRQWALNLPCG-NH2; thioether N-14) | 0.0145 ± 0.0004 µM | 0.00358 s⁻¹ | 247000 M⁻¹ s⁻¹ | 100 fold | – | – | –
CC[C@H](C)[C@@H]1NC(=O)[C@H](C)NC(=O)[C@H](Cc2ccc(O)cc2)NC(=O)[C@H](C(C)C)NC(=O)[C@H](CO)NC(=O)[C@H](CCC(=O)O)NC(=O)[C@H](Cc2ccccc2)NC(=O)[C@@H](Cc2ccc(O)cc2)NC(=O)CSC[C@@H](C(=O)NCC(N)=O)NC(=O)[C@H](CC(C)C)NC(=O)[C@H]([C@@H](C)O)NC(=O)CNC(=O)[C@H](Cc2c[nH]c3ccccc23)NC1=O [GN13] ({CH2CO}-[dY]FESVYAIWGTLCG-NH2; thioether N-13) | – | – | – | – | no detectable binding | abolished | inhibited
